Assay results: patent US6727265B2, “Phenoxyethyl-thiourea-pyridine compounds and their use for treatment of HIV-infections” (Parker Hughes Institute, priority 2000, dated 2004)
pIC50: −log10 of the molar value. Read-outs that look alike come from different tables or passages of the source.

What was measured:
HIV-1 strain HTLVIIIB = experiment: anti-HIV activity: inhibition of replication of HIV-1 strain HTLVIIIB in PBMC; format: cell-based; conditions: for pIC50: read-out: IC50 [HTLVHIB]; for inhibition at 1 µM: at concentrations ≧1 μM
[1] = target: purified recombinant HIV RT (Human immunodeficiency virus type 1 group M subtype B, UniProt P03366); experiment: biochemical
cytotoxicity (CC50) = format: cell-based; conditions: CC50 values
[2] = Human immunodeficiency virus 1, PBMC
[3] = Human immunodeficiency virus 1, peripheral blood mononuclear cells (PBMC) from healthy volunteer donors

| Compound | pIC50 (HIV-1 strain HTLVIIIB; [2]) | pIC50 [1] | CC (cytotoxicity (CC50)) | inhibition at 1 µM (HIV-1 strain HTLVIIIB; [2]) | pIC50 (HIV-1 strain HTLVIIIB; [3]) | melting point |
| --- | --- | --- | --- | --- | --- | --- |
| Oc1ccc(CCNC(=S)Nc2ccc(Br)cn2)cc1 [VII, reference compound] | 5.51 | 4.06 | >100 µM |  |  |  |
| S=C(NCCOc1ccccc1)Nc1ccccn1 [II, N-[2-(Phenoxy)ethyl]-N′-[2-(pyridyl)]thiourea] |  | 5.00 | 55 µM | 100% | 8.30 |  |
| S=C(NCCOc1ccccc1)Nc1ccc(Cl)cn1 [III, N -[2-(Phenoxy)ethyl]-N′-[2-(5-chloropyridyl)]thiourea] |  | 5.82 | >100 µM | 100% | 8.40 |  |
| S=C(NCCc1ccc(Cl)cc1)Nc1ccc(Br)cn1 [V, reference compound] |  | 5.60 |  |  |  |  |
| S=C(NCCOc1ccccc1)Nc1ccc(Br)cn1 [IV, N-[2-(Phenoxy)ethyl]-N′-[2-(5-bromopyridyl)]thiourea] |  | 5.82 | 92 µM | 100% | 8.30 | 162 to 163 °C |
